Measurements from patent US20260137697A1, “THIAZOLO[5,4-D]PYRIMIDINE COMPOUNDS, COMPOSITIONS COMPRISING THEM AND USES THEREOF” (University de Montreal, priority 2022, published 2026).
Read-outs that look alike come from different tables or passages of the source.

Assays:
Format in all cases: cell-based, human
NCIH2087 cells = assay: Proliferation inhibition, CellTiter-Glo, NCIH2087; conditions: Table D-2, NCIH2087 (BRAF L597V; KRAS Q61K), 3 days, read-out: Prolif. (proliferation EC50)
Protocol: (§1) All cancer cell lines (A375, A101D, A2058, RKO, HT29 SK-MEL 30, IPC298, HepG2, HCT-116, Lovo, SW620, SW480, NCI-H358, NCI-H2122, Calu-6, NCIH2087, NCIH1755, NCIH1666 and Mewo) were obtained from ATCC and cultured in RPM1-1640 medium (Gibco) supplemented with 5% heat inactivated fetal bovine serum (FBS, Wisent) at 37° C. under 5% CO2. Cells were maintained in T175 flasks (Greiner). They were passaged by removing the culture medium, washing once in 10 mL of room temperature Phosphate Buffered Saline (PBS; Wisent) and incubating at 37° C. with 2 mL of 0.05% Trypsin (Thermo-Fisher). Trypsin was then inactivated by adding complete growth medium and the cells were then replated in a T175 culture dish at the appropriate dilution. All cell lines were routinely tested for mycoplasma contamination. Tissue type and mutational status of each cell line can be found in Table B.
(§2) CellTiter-Glo® viability analysis was conducted on cells plated in 100 μL of complete RPMI-1640 growth medium in 96-well flat-bottomed white opaque plates (Greiner or Croning) at a density indicated in Table E (for each CCL, number of cells plated per well of a 96-well plate to perform the CellTiter-Glo® cell viability assay). The cell density in cells/cm^2 would correspond to cell number divided by the area of one well of a 96-well plate (0.32 cm^2). […]
(§3) After 3 days of incubation, the growth media were removed by aspiration and 60 μL of diluted CellTiter-Glo® reagent (10 μL CellTiter-Glo® reagent+50 μL of PBS) was added to each well. […] Luminescence signals were then acquired on a Synergy Neo2 plate reader (Biotek).
(§4) The effect of each compound dilution on the proliferation of cancer cell lines was expressed in % inhibition and calculated as follows. […]
(§5) The ability of each compound to inhibit proliferation was expressed as a EC50 value obtained by plotting the effect values for each data point of a dilution series and fitting the obtained curves using a log(agonist) versus response—variable slope (four parameters) function using GraphPadPrism (V7.0) or Dotmatics Screening Ultra platform.

Mewo cells = assay: Proliferation inhibition, CellTiter-Glo, Mewo; conditions: Table D-2, Mewo (NF1 LOF), 3 days, read-out: Prolif. (proliferation EC50)
Protocol: as §1, §2, §3, §4, §5

pERK, Mewo cells = assay: Phospho-ERK inhibition, AlphaLISA p-ERK 1/2, Mewo; conditions: Table D-2; for IC50: Mewo (NF1 LOF); for pERK value in parentheses, % inhibition (Ymin): Mewo, lowest point of IC50 curve
Protocol: as §1
(§6) (c) Measurement of Phospho-ERK Inhibition in Cultivated Human Cancer Cell Lines by the AlphaLISA® SureFire® Ultra™ p-ERK 1/2 (Thr2O2/Tyr204)
(§7) AlphaLISA® SureFire® Ultra™ p-ERK 1/2 (Thr202/Tyr204) analysis was conducted on cells plated in 100 μL of complete RPMI-1640 growth medium in 96-well flat-bottomed transparent dishes (Costar) at a density indicated in Table C. Cells were maintained overnight at 37° C. under 5% CO2 before treatment with compounds' dilution series for one hour. The cell density in cells/cm^2 corresponds to cell number divided by the area of one well of a 96-well plate (0.143 cm^2).
(§8) In a dilution series 100 μL/well of test substance dilution prepared in complete RPMI-1640 growth media was added to the cells. The dilution series is selected so that ten concentrations cover a range from 10 μM to 0.33 nM. If necessary, the initial concentration of 10 μM is increased to 100 μM or lowered to 1 μM (as in the case of A375 and H1666 cells, which are generally more sensitive to the compounds) and further dilution is carried out accordingly. The final concentration of DMSO in the assay is set at 0.5%.
(§9) After treatment, media was removed, and cells were lysed in 50 μL of 1× AlphaScreen Ultra Lysis Buffer (Perkin Elmer). The AlphaLISA® SureFire® Ultra™ p-ERK 1/2 (Thr202/Tyr204) (PerkinElmer) reactions were performed with 5 μL of cell lysate according to the manufacturer's specifications in 384-well proxyplates (Perkin Elmer) followed by overnight incubation of the reactions at room temperature in a humidified chamber. After completion of the reactions, the signals were recorded on an EnVision plate reader (Perkin Elmer) using built in AlphaLISA® settings.
(§10) The effect of each compound dilution on the pERK signal was expressed in % inhibition and calculated as follows. An internal 100% inhibition control (1 μM trametinib, cat. No. HY-10999; MedChem Express; CAS No. 871700-17-3) was included in each plate and used as a measure of pERK background. First, the value obtained for trametinib was subtracted from each data point. The average of DMSO (vehicle) controls (set as 0% inhibition) was established and used to calculate % inhibition:
as §5, with “pERK signal” for “proliferation”, “an IC50” for “a EC50”, “inhibition” for “effect”
(§11) When present, paradoxical pERK induction is inferred from the negative % inhibition values observed in the pERK IC50 curves of a compound.

pERK, NCIH1755 cells = assay: Phospho-ERK inhibition, AlphaLISA p-ERK 1/2, NCIH1755; conditions: Table D-2; for IC50: NCIH1755 (BRAF G469A); for pERK value in parentheses, % inhibition (Ymin): NCIH1755, lowest point of IC50 curve
Protocol: as §1, §6, §7, §8, §9, §10
as §5, with “pERK signal” for “proliferation”, “an IC50” for “a EC50”, “inhibition” for “effect”
as §11

HCT116 cells = assay: Proliferation inhibition, CellTiter-Glo, HCT116; conditions: Table D-1, HCT116 (KRAS G13D), 3 days, read-out: Prolif. (proliferation EC50)
Protocol: as §1, §2, §3, §4, §5

| Compound | EC50 (NCIH2087 cells) | EC50 (Mewo cells) | IC50 (pERK, Mewo cells) | pERK value in parentheses, % inhibition (Ymin) (pERK, Mewo cells) | IC50 (pERK, NCIH1755 cells) | pERK value in parentheses, % inhibition (Ymin) (pERK, NCIH1755 cells) | EC50 (HCT116 cells) | EC50 (NCIH2087 cells; Homo sapiens, NCI-H2087, 72 h) | EC50 (Mewo cells; Homo sapiens, 72 h) | IC50 (pERK, Mewo cells; Homo sapiens) | IC50 (pERK, NCIH1755 cells; Homo sapiens, NCI-H1755) | EC50 (HCT116 cells; Homo sapiens, HCT-116, 72 h) |
| --- | --- | --- | --- | --- | --- | --- | --- | --- | --- | --- | --- | --- |
| N#CC1(c2cccc3c2ncn3-c2nc3c(Nc4c(F)ccc(NS(=O)(=O)c5cccc(Cl)c5Cl)c4F)ncnc3s2)CC1 [Example 122] | < 300 nM | < 300 nM | 30 to 300 nM | (2) % | < 30 nM | (11) % | < 300 nM |  |  |  |  |  |
| Cc1ccc2c(Nc3cccc(Cl)c3F)nccc2c1NC(=O)c1csc2c(N)ncnc12 [Belvarafenib, reference compound] |  |  |  | (−116) % |  | (−79) % |  | < 300 nM | 300 to 3000 nM | 30 to 300 nM | 30 to 300 nM | 300 to 3000 nM |
| Cc1c(F)cccc1S(=O)(=O)Nc1ccc(F)c(Nc2ncnc3sc(-n4cc(C(=O)N5C6CCC5CN(C)C6)c5ccccc54)nc23)c1F [Example 44] | < 300 nM | < 300 nM | < 30 nM | (3) % | < 30 nM | (−9) % | < 300 nM |  |  |  |  |  |
